Results from patent US3985875A, “ω-(N-acylamino)alkylphosphoryl ethanolamines, pharmaceutical compositions containing them, and their uses” (Dainippon Pharmaceutical Co., Ltd., priority 1974, dated 1976).
Where two headings read alike, the source gives them in different places.

What was measured:
High renin plasma = target: T1, High renin plasma (Canis lupus familiaris, UniProt Q6DYE7); assay: Renin-inhibitory activity, Method II (high renin plasma of dog, inhibition of Angiotensin I formation); type: biochemical; settings: Table 2; 37°C, 4 hours, 1.25 mg/ml; read-out: Rate of inhibiting the formation of Angiotensin I determined by Method II
T1 construct: High renin plasma prepared by constriction of the renal artery of a dog anesthetized with Nembutal; from tissue; host or cells: plasma of a dog with constricted renal artery
T1 sequence (Q6DYE7 66-403): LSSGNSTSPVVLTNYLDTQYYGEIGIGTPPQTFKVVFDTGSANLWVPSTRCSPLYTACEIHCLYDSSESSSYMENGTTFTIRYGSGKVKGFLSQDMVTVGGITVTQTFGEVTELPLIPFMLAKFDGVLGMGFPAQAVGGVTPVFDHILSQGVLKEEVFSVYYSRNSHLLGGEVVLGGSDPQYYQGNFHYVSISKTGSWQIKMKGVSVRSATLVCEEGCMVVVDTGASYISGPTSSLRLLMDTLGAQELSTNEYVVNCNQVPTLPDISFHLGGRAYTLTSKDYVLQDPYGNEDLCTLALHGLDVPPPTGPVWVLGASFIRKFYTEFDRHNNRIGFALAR
Procedure: High renin plasma prepared by constriction of the renal artery of a dog anesthetized with Nembutal (the plasma which when incubated at 37°40 C. for 6 hours, yields 30 to […]. of Angiotensin I) was incubated at 37° C. for 2 to 6 hours in the same way as in Method I, and also under the same conditions in the presence of 1.25 mg/ml. of each of the test compounds.
(§1) The results are shown in Table 1 (the rate of inhibiting the formation of Angiotensin I, as determined by Method I, when the plasma was incubated at 37° C. for 2, 4 and 6 hours respectively), and Table 2 (the rate of inhibiting the formation of Angiotensin I when the plasma was incubated at 37° C. for 4 hours, with the compound concentration of 1.25 mg/ml.)

plasma cholesterol level = assay: Cholesterol-lowering activity in rats (modified Greenberg method); type: in vivo, rat; settings: 100 mg/Kg oral once a day, 5 consecutive days
Procedure: The effect of each of the test compounds on the plasma cholesterol level was examined in rats according to a slightly modified form of the C. M. Greenberg et al. method described in Am. J. Physiol., Vol. 202 (1961), p. 732. Rats were treated once a day with a 100 mg/Kg oral dose for 5 consecutive days instead of 7 days.

renal hypertensive rats [1] = assay: Antihypertensive activity in renal hypertensive rats, i.m. (Table 3); type: in vivo, rat; settings: 30 mg/kg/day i.m.
Procedure: (§2) An aqueous solution or suspension in peanut oil of each test compound as administered intramuscularly (i.m.) or orally (p.o.) at a dose of 30 to 100 mg/kg (body weight)/day once every morning over the period of 6 to 7 days.
(§3) The blood pressure of each rat was measured daily before and 5 hours after each administration. Furthermore, the blood pressure was measured every morning after drug withdrawal over a period of 3 to 6 days.
(§4) Test compounds (1)-(4) decreased the blood pressure of renal hypertensive rats with a dose of 30 mg/kg/day i.m.. […] The antihypertensive rats with a dose of 100 mg/kg/day p.o..

Renin = target: T2, Renin (Homo sapiens, UniProt P00797); assay: Renin-inhibitory activity, Method I (inhibition of Angiotensin I formation, RIA); type: biochemical; settings: for inhibition at 1250 µg/mL: 1.25 mg/ml; for inhibition at 313 µg/mL: 0.313 mg/ml; for inhibition at 625 µg/mL: 0.625 mg/ml; for inhibition at 2500 µg/mL: 2.5 mg/ml
T2 sequence (P00797 67-406): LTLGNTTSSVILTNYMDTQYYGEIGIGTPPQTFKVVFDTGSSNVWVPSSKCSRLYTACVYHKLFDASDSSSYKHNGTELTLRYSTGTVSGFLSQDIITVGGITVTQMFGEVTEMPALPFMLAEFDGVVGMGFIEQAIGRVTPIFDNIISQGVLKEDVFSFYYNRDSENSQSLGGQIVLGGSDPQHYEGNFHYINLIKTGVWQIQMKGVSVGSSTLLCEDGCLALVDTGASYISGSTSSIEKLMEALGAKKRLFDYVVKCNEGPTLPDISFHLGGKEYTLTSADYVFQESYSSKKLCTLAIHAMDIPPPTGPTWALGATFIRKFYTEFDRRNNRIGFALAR
Procedure: Renin (see E. Haas et al. Circulation Research, Vol. 19, p. 739, 1966 and Vol. 31, p. 65, 1972) was incubated in Angiotensinogen at 37° C. for 2 to 6 hours. Similarly, renin was incubated under the same conditions in the presence of 0.313 to 2.5 mg/ml. of each of the test compounds listed above. The amount of Angiotensin I was measured by radioimmunoassay (RIA) (E. Haber et al., J. Clin. Endocrinol., Vol. 29, p. 1349, 1969), and made the renin activity.
as §1

renal hypertensive rats [2] = assay: Antihypertensive activity in rats, p.o. (Table 4); type: in vivo, rat; settings: 100 mg/kg/day p.o.
Procedure: as §2, §3, §4

[3] = 1st day, 0 h (immediately before administration)
[4] = 1st day, 5 hours after administration
[5] = 2nd day, 0 h (immediately before administration)
[6] = 2nd day, 5 hours after administration
[7] = 3rd day, 0 h (immediately before administration)
[8] = 3rd day, 5 hours after administration
[9] = 4th day, 0 h (immediately before administration)
[10] = 4th day, 5 hours after administration
[11] = 5th day, 0 h (immediately before administration)
[12] = 5th day, 5 hours after administration
[13] = 6th day, 0 h (immediately before administration)
[14] = 6th day, 5 hours after administration
[15] = Table 2, 37°C, 4 hours, read-out: Rate of inhibiting the formation of Angiotensin I determined by Method I
[16] = incubating time 2 hours, read-out: Rate of inhibiting the formation of Angiotensin I
[17] = incubating time 4 hours, read-out: Rate of inhibiting the formation of Angiotensin I
[18] = incubating time 6 hours, read-out: Rate of inhibiting the formation of Angiotensin I

`CCC=CCC=CCC=CCCCCCCCC(=O)OCC(COP(=O)(O)OCCN)OC(=O)CCCCCCCCCCCCCCCCC` (racemic) [(b), rac-2-Octadecanoyl-3-(octadeca-9,12,15-trienoyl)glycero-1-phosphoryl ethanolamine, reference compound] was tested, and the inhibition at 1250 µg/mL (High renin plasma) was 25%, the Cholesterol-lowering activity (plasma cholesterol level) was 0% and the “Changes of blood pressure after drug withdrawal” value (“Changes … after drug withdrawal” for short) (renal hypertensive rats [1]; 1st day after withdrawal) was -11 mmHg. For the same molecule, the “Changes of blood pressure” value (renal hypertensive rats [1]; [3]) was 0 mmHg, the “Changes of blood pressure” value (renal hypertensive rats [1]; [4]) was -32 mmHg and the “Changes … after drug withdrawal” value (renal hypertensive rats [1]; 2nd day after withdrawal) was -2 mmHg. The “Changes of blood pressure” value (renal hypertensive rats [1]; [5]) was -4 mmHg, the “Changes of blood pressure” value (renal hypertensive rats [1]; [6]) was -25 mmHg and the “Changes … after drug withdrawal” value (renal hypertensive rats [1]; 3rd day after withdrawal) was -1 mmHg. The “Changes of blood pressure” value (renal hypertensive rats [1]; [7]) was -8 mmHg, the “Changes of blood pressure” value (renal hypertensive rats [1]; [8]) was -34 mmHg and the “Changes of blood pressure” value (renal hypertensive rats [1]; [9]) was -7 mmHg. For the same molecule, the “Changes of blood pressure” value (renal hypertensive rats [1]; [10]) was -39 mmHg, the “Changes of blood pressure” value (renal hypertensive rats [1]; [11]) was -8 mmHg and the “Changes of blood pressure” value (renal hypertensive rats [1]; [12]) was -44 mmHg. The “Changes of blood pressure” value (renal hypertensive rats [1]; [13]) was -10 mmHg, the “Changes of blood pressure” value (renal hypertensive rats [1]; [14]) was -47 mmHg and the inhibition at 1250 µg/mL (Renin; [15]) was < 10%.

In the case of `CC(Oc1ccc(Oc2ccc(Cl)cc2)cc1)C(=O)NCCOP(=O)(O)OCCN` (stereo not drawn) [Compound (6), 2-{α-[4-(4'-chlorophenoxy)phenoxy]propionylamino} ethylphosphoryl ethanolamine], the inhibition at 1250 µg/mL (High renin plasma) is reported as 55%, the “Changes … after drug withdrawal” value (renal hypertensive rats [2]; 1st day after withdrawal) is reported as -37 mmHg and the “Changes of blood pressure” value (renal hypertensive rats [2]; [3]) is reported as 0 mmHg. The “Changes of blood pressure” value (renal hypertensive rats [2]; [4]) was -9 mmHg, the “Changes … after drug withdrawal” value (renal hypertensive rats [2]; 2nd day after withdrawal) was -32 mmHg and the “Changes of blood pressure” value (renal hypertensive rats [2]; [5]) was “+4 mmHg”. The “Changes of blood pressure” value (renal hypertensive rats [2]; [6]) was -4 mmHg, the “Changes … after drug withdrawal” value (renal hypertensive rats [2]; 3rd day after withdrawal) was -18 mmHg and the “Changes of blood pressure” value (renal hypertensive rats [2]; [7]) was -14 mmHg. The “Changes of blood pressure” value (renal hypertensive rats [2]; [8]) was -25 mmHg, the “Changes … after drug withdrawal” value (renal hypertensive rats [2]; 4th day after withdrawal) was -8 mmHg and the “Changes of blood pressure” value (renal hypertensive rats [2]; [9]) was -18 mmHg. For the same molecule, the “Changes of blood pressure” value (renal hypertensive rats [2]; [10]) was -27 mmHg, the “Changes … after drug withdrawal” value (renal hypertensive rats [2]; 5th day after withdrawal) was -2 mmHg and the “Changes of blood pressure” value (renal hypertensive rats [2]; [11]) was -27 mmHg. The “Changes of blood pressure” value (renal hypertensive rats [2]; [12]) was -41 mmHg, the “Changes … after drug withdrawal” value (renal hypertensive rats [2]; 6th day after withdrawal) was “+1 mmHg” and the “Changes of blood pressure” value (renal hypertensive rats [2]; [13]) was -34 mmHg. For the same molecule, the “Changes of blood pressure” value (renal hypertensive rats [2]; [14]) was -47 mmHg, the “Changes of blood pressure” value (renal hypertensive rats [2]; 7th day, 0 h (immediately before administration)) was -36 mmHg and the “Changes of blood pressure” value (renal hypertensive rats [2]; 7th day, 5 hours after administration) was -51 mmHg. For the same molecule, the Cholesterol-lowering activity (plasma cholesterol level) was 48.1%, the inhibition at 313 µg/mL (Renin; [16]) was 25% and the inhibition at 313 µg/mL (Renin; [17]) was 33%. It also gave an inhibition at 313 µg/mL (Renin; [18]) of 33%, an inhibition at 625 µg/mL (Renin; [16]) of 50% and an inhibition at 625 µg/mL (Renin; [17]) of 56%. It also gave an inhibition at 625 µg/mL (Renin; [18]) of 53%, an inhibition at 1250 µg/mL (Renin; [16]) of 75% and an inhibition at 1250 µg/mL (Renin; [17]) of 78%. For the same molecule, the inhibition at 1250 µg/mL (Renin; [18]) was 67%, the inhibition at 2500 µg/mL (Renin; [16]) was 100% and the inhibition at 2500 µg/mL (Renin; [17]) was 93%. It also gave an inhibition at 2500 µg/mL (Renin; [18]) of 89% and an inhibition at 1250 µg/mL (Renin; [15]) of 78%.
